In patent publication US11186579B2 (Gilead Sciences, Inc., priority 2018, dated 2021):

Target: T1, IDO1 (Homo sapiens, UniProt P14902)
T1 construct: HeLa cells were treated with a test compound in the presence of IFNγ, which induces IDO1 expression; endogenous in cells; host or cells: H1-HeLa cells (ATCC #CRL-1958), IDO1 induced with IFNγ
Test: Cell-Based (HeLa) Assay for Measurement of IDO1 Inhibition
Conditions: H1-HeLa cells, IDO1 induced with IFNγ, 48 hour incubation, kynurenine in supernatant (absorbance 480 nm); geometric mean of minimum four determinations
Experimental: To measure IDO1 inhibition in tissue culture, HeLa cells were treated with a test compound in the presence of IFNγ, which induces IDO1 expression. Following incubation, cell supernatants were assayed for kynurenine levels, an indicator of IDO1 activity.
The following day, the test compounds were added in DMSO (0.5% final) at various concentrations, and IDO1 was inducibly expressed by the addition of 50 uL/well of 50 ng/mL of INFγ (Peprotech #300-02) in cell plating media. As a positive control, 50 uL of the cell plating media without IFNγ was added to several wells. Following a 48 hour incubation, the plates were spun down at 1,200 RPM for 5 min at 10° C. 65 μL/well of the supernatant was then transferred to new 384-well plates (Thermo #262160) that contained 10 uL/well of 30% TCA (Sigma #TO699), and the plates were sealed and incubated at 60° C. for 30 min. The plates were then centrifuged for 15 min at 2,000 RPM at 10° C. 40 μL/well of the supernatant was transferred to new 384-well plates (Thermo #262160) and was reacted with 40 μL/well of 2% (w/v) p-dimethlyaminobenzaldehyde (Sigma #156417) in glacial acetic acid (Sigma #A6283). The reaction was incubated at room temperature for 10 min and absorbance at 480 nm was read using a PerkinElmer Envision plate reader.
Data in Table 1 were normalized based on positive (-IFNγ) and negative (+IFNγ) controls and EC50 values were calculated from the fit of the dose-response curves to a four-parameter equation. All EC50 values represent geometric mean values of a minimum of four determinations.

T1 sequence (P14902 whole entry): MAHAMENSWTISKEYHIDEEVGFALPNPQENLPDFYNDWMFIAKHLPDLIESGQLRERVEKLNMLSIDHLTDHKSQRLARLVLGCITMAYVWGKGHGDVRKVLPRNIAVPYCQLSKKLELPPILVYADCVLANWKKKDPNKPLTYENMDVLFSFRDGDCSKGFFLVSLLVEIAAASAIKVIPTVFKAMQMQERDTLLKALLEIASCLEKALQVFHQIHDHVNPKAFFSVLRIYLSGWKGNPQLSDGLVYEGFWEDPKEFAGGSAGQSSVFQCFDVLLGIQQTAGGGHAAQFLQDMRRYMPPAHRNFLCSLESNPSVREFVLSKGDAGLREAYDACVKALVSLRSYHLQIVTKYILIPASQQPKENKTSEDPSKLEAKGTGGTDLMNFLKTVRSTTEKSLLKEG

**Q.** With `COCCOCc1nc2c(-c3ccc(C(F)(F)F)c(C(=O)Nc4ccc(F)cc4)c3)cccn2c1-c1cccc(F)c1F` [Example 1, 5-(3-(2,3-difluorophenyl)-2-((2-methoxyethoxy)methyl)imidazo[1,2-a]pyridin-8-yl)-N-(4-fluorophenyl)-2-(trifluoromethyl)benz amide] as the compound, how does the EC50 read?
**A.** 8680 nM

**Q.** `Cc1ncc(-c2cccn3c(-c4cncc(F)c4)c(CO)nc23)cc1C(=O)Nc1ccc(F)cc1` [Example 2, N-(4-fluorophenyl)-5-(3-(5-fluoropyridin-3-yl)-2-(hydroxymethyl)imidazo[1,2-a]pyridin-8-yl)-2-methylnicotinamide] was tested. Which EC50 did it give?
**A.** 3610 nM

**Q.** For `O=C(Nc1ccc(F)cc1)c1cc(-c2cccn3c(-c4cccc(F)c4F)cnc23)ncc1C(F)(F)F` [Example 3, 2-(3-(2,3-difluorophenyl)imidazo[1,2-a]pyridin-8-yl)-N-(4-fluorophenyl)-5-(trifluoromethyl)isonicotinamide], which EC50 is on record?
**A.** 2390 nM

**Q.** `Cc1ccc(-c2cnc3c(-c4ccc(C(F)(F)F)c(C(=O)Nc5ccc(F)cc5)c4)cccn23)cn1` [Example 4, N-(4-fluorophenyl)-5-(3-(6-methylpyridin-3-yl)imidazo[1,2-a]pyridin-8-yl)-2-(trifluoromethyl)benzamide] was tested. Which EC50 did it give?
**A.** 2230 nM

**Q.** For `Cc1cccc(-c2cnc3c(-c4ccc(C(F)(F)F)c(C(=O)Nc5ccc(F)cc5)c4)cccn23)n1` [Example 5], which EC50 is on record?
**A.** 1700 nM

**Q.** `O=C(Nc1ccc(F)cc1)c1cc(-c2cccn3c(-c4ccncc4)cnc23)ccc1C(F)(F)F` [Example 6, N-(4-fluorophenyl)-5-(3-(pyridin-4-yl)imidazo[1,2-a]pyridin-8-yl)-2-(trifluoromethyl)benzamide] was tested. Which EC50 did it give?
**A.** 1420 nM

**Q.** How did the EC50 turn out when `NCc1nc2c(-c3ccc(C(F)(F)F)c(C(=O)Nc4ccc(F)cc4)c3)cccn2c1-c1cccc(F)c1F` [Example 7, 5-(2-(aminomethyl)-3-(2,3-difluorophenyl)imidazo[1,2-a]pyridin-8-yl)-N-(4-fluorophenyl)-2-(trifluoromethyl)benzamide] was run?
**A.** 1010 nM

**Q.** With `Cc1cnc(-c2cccn3c(-c4cccc(F)c4F)cnc23)cc1C(=O)Nc1ccc(F)cc1` [Example 8, 2-(3-(2,3-difluorophenyl)imidazo[1,2-a]pyridin-8-yl)-N-(4-fluorophenyl)-5-methylisonicotinamide] as the compound, how does the EC50 read?
**A.** 945 nM

**Q.** For `Cc1ncccc1-c1cnc2c(-c3ccc(C(F)(F)F)c(C(=O)Nc4ccc(F)cc4)c3)cccn12` [Example 9, N-(4-fluorophenyl)-5-(3-(2-methylpyridin-3-yl)imidazo[1,2-a]pyridin-8-yl)-2-(trifluoromethyl)benzamide], which EC50 is on record?
**A.** 535 nM

**Q.** `Cc1ccc(-c2cccn3c(-c4cccc(F)c4F)c(C)nc23)cc1C(=O)Nc1ccc(F)cc1` [Example 11, 5-(3-(2,3-difluorophenyl)-2-methylimidazo[1,2-a]pyridin-8-yl)-N-(4-fluorophenyl)-2-methylbenzamide] was tested. Which EC50 did it give?
**A.** 436 nM

**Q.** Which EC50 does the source give for `Cc1ncc(-c2cccn3c(-c4cccc(F)c4F)cnc23)cc1C(=O)Nc1ccc(F)cc1` [Example 12, 5-(3-(2,3-difluorophenyl)imidazo[1,2-a]pyridin-8-yl)-N-(4-fluorophenyl)-2-methylnicotinamide] here?
**A.** 403 nM

**Q.** With `Cc1ncc(-c2ccnn3c(-c4cccc(F)c4F)cnc23)cc1C(=O)Nc1ccc(F)cc1` [Example 13] as the compound, how does the EC50 read?
**A.** 395 nM

**Q.** With `Cc1ncc(-c2cccn3c(-c4cccc(F)c4F)c(CO)nc23)cc1C(=O)Nc1ccc(F)cc1` [Example 14, 5-(3-(2,3-difluorophenyl)-2-(hydroxymethyl)imidazo[1,2-a]pyridin-8-yl)-N-(4-fluorophenyl)-2-methylnicotinamide] as the compound, how does the EC50 read?
**A.** 372 nM

**Q.** With `O=C(Nc1ccc(F)cc1)c1cc(-c2cccn3c(-c4cccnc4)c(CO)nc23)ccc1Cl` [Example 15, 2-chloro-N-(4-fluorophenyl)-5-(2-(hydroxymethyl)-3-(pyridin-3-yl)imidazo[1,2-a]pyridin-8-yl)benzamide] as the compound, how does the EC50 read?
**A.** 272 nM

**Q.** Which EC50 does the source give for `Cc1ccc(-c2cccn3c(-c4cccc(F)c4F)cnc23)nc1C(=O)Nc1ccc(F)cc1` [Example 16, 6-(3-(2,3-difluorophenyl)imidazo[1,2-a]pyridin-8-yl)-N-(4-fluorophenyl)-3-methylpicolinamide] here?
**A.** 168 nM

**Q.** With `Cc1ccc(-c2cccn3c(-c4ccccc4)cnc23)cc1C(=O)Nc1ccc(F)cc1` [Example 17, N-(4-fluorophenyl)-2-methyl-5-(3-phenylimidazo[1,2-a]pyridin-8-yl)benzamide] as the compound, how does the EC50 read?
**A.** 168 nM

**Q.** `Cc1nc2c(-c3ccc(C(F)(F)F)c(C(=O)Nc4ccc(F)cc4)c3)cccn2c1-c1cccnc1` [Example 18, N-(4-fluorophenyl)-5-(2-methyl-3-(pyridin-3-yl)imidazo[1,2-a]pyridin-8-yl)-2-(trifluoromethyl)benzamide] was tested. Which EC50 did it give?
**A.** 165 nM

**Q.** For `Cc1ccc(-c2cccn3c(-c4cccc(F)c4)cnc23)cc1C(=O)Nc1ccc(F)cc1` [Example 19, N-(4-fluorophenyl)-5-(3-(3-fluorophenyl)imidazo[1,2-a]pyridin-8-yl)-2-methylbenzamide], which EC50 is on record?
**A.** 146 nM

**Q.** Which EC50 does the source give for `O=C(Nc1ccc(F)cc1)c1cc(-c2cccn3c(-c4cccc(F)c4F)cnc23)cnc1C(F)(F)F` [Example 20, 5-(3-(2,3-difluorophenyl)imidazo[1,2-a]pyridin-8-yl)-N-(4-fluorophenyl)-2-(trifluoromethyl)nicotinamide] here?
**A.** 89 nM

**Q.** `O=C(Nc1ccc(F)cc1)c1cc(-c2cccn3c(-c4cccnc4)c(CO)nc23)ccc1C(F)(F)F` [Example 21, N-(4-fluorophenyl)-5-(2-(hydroxymethyl)-3-(pyridin-3-yl)imidazo[1,2-a]pyridin-8-yl)-2-(trifluoromethyl)benzamide] was tested. Which EC50 did it give?
**A.** 89 nM

**Q.** For `O=C(Nc1ccc(F)cc1)c1cc(-c2cccn3c(-c4cccnc4F)cnc23)ccc1C(F)(F)F` [Example 22, N-(4-fluorophenyl)-5-(3-(2-fluoropyridin-3-yl)imidazo[1,2-a]pyridin-8-yl)-2-(trifluoromethyl)benzamide], which EC50 is on record?
**A.** 74 nM

**Q.** How did the EC50 turn out when `Cc1ccc(-c2cccn3c(-c4ccccc4F)cnc23)cc1C(=O)Nc1ccc(F)cc1` [Example 23, N-(4-fluorophenyl)-5-(3-(2-fluorophenyl)imidazo[1,2-a]pyridin-8-yl)-2-methylbenzamide] was run?
**A.** 73 nM

**Q.** Which EC50 does the source give for `O=C(Nc1ccc(F)cc1)c1nc(-c2cccn3c(-c4cccc(F)c4F)cnc23)ccc1C(F)(F)F` [Example 24, 6-(3-(2,3-difluorophenyl)imidazo[1,2-a]pyridin-8-yl)-N-(4-fluorophenyl)-3-(trifluoromethyl)picolinamide] here?
**A.** 64 nM

**Q.** Which EC50 does the source give for `O=C(Nc1ccc(F)cc1)c1cc(-c2cccn3c(-c4cccc(F)c4F)c(CO)nc23)ccc1C(F)(F)F` [Example 28, 5-(3-(2,3-difluorophenyl)-2-(hydroxymethyl)imidazo[1,2-a]pyridin-8-yl)-N-(4-fluorophenyl)-2-(trifluoromethyl)benzamide] here?
**A.** 40 nM

**Q.** With `Fc1ccc2[nH]c(-c3cc(-c4cccn5c(-c6cccc(F)c6F)cnc45)ccc3C(F)(F)F)nc2c1` [Example 36, 2-(5-(3-(2,3-difluorophenyl)imidazo[1,2-a]pyridin-8-yl)-2-(trifluoromethyl)phenyl)-5-fluoro-1H-benzo[d]imidazole] as the compound, how does the EC50 read?
**A.** 713 nM
